Measured values reported in ChEMBL document CHEMBL5705888, “Substrate specificity and inhibitors of LRRK2, a protein kinase mutated in Parkinson's disease” (Biochem J, 2009).

What was measured:
[1] = target: RAC-alpha serine/threonine-protein kinase (Homo sapiens) (UniProt P31749); test: Inhibition of PKBalpha (unknown origin) at 1 uM incubated for 30 mins in presence of [gamma-33P]ATP by multidrop micro reagent based assay relative to control; values are per cent of control
[2] = target: Tyrosine-protein kinase CSK (Homo sapiens) (UniProt P41240); test: Inhibition of CSK (unknown origin) at 1 uM incubated for 30 mins in presence of [gamma-33P]ATP by multidrop micro reagent based assay relative to control
Chain of Tyrosine-protein kinase CSK (Homo sapiens) (P41240 2-450 limits assumed): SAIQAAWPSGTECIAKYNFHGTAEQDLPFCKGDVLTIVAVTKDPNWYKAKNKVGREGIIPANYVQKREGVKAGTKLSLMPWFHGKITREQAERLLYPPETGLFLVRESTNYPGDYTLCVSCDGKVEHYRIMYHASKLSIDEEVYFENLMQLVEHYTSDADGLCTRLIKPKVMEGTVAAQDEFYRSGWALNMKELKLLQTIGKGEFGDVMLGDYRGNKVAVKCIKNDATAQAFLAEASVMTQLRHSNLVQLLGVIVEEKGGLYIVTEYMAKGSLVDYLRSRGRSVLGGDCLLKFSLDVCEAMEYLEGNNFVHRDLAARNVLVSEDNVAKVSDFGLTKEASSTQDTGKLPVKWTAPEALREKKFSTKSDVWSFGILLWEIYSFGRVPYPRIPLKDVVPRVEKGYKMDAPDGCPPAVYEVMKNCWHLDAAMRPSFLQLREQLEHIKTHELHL

[3] = target: Glycogen synthase kinase-3 beta (Homo sapiens) (UniProt P49841); test: Inhibition of GSK3beta (unknown origin) at 1 uM incubated for 30 mins in presence of [gamma-33P]ATP by multidrop micro reagent based assay relative to control; values are per cent of control
Chain of Glycogen synthase kinase-3 beta (Homo sapiens) (P49841 whole entry, looked up): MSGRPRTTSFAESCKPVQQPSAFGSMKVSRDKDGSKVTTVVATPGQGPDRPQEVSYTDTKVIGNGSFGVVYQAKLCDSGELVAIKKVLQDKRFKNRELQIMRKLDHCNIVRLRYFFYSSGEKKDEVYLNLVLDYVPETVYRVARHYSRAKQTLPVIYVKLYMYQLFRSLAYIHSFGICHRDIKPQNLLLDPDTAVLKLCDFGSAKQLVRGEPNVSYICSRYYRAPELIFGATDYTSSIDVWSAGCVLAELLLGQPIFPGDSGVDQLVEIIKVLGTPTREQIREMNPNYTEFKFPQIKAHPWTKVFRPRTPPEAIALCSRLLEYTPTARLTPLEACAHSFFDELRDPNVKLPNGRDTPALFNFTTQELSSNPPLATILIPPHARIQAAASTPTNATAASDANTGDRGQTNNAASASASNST

[4] = target: Serine/threonine-protein kinase Nek6 (Homo sapiens) (UniProt Q9HC98); test: Inhibition of NEK6 (unknown origin) at 1 uM incubated for 30 mins in presence of [gamma-33P]ATP by multidrop micro reagent based assay relative to control; values are per cent of control
Chain of Serine/threonine-protein kinase Nek6 (Homo sapiens) (Q9HC98 whole entry): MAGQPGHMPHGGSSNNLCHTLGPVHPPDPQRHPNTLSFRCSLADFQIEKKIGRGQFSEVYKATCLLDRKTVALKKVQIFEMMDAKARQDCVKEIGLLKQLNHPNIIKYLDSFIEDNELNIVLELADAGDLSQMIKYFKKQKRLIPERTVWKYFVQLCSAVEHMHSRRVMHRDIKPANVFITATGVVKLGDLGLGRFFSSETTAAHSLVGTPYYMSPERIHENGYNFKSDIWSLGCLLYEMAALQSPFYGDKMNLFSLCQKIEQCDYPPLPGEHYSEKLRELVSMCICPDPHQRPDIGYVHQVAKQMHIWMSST

[5] = target: T1, Inhibitor of nuclear factor kappa-B kinase subunit epsilon (Homo sapiens) (UniProt Q14164); test: Inhibition of IKKepsilon (unknown origin) at 1 uM incubated for 30 mins in presence of [gamma-33P]ATP by multidrop micro reagent based assay relative to control
T1 sequence (whole entry): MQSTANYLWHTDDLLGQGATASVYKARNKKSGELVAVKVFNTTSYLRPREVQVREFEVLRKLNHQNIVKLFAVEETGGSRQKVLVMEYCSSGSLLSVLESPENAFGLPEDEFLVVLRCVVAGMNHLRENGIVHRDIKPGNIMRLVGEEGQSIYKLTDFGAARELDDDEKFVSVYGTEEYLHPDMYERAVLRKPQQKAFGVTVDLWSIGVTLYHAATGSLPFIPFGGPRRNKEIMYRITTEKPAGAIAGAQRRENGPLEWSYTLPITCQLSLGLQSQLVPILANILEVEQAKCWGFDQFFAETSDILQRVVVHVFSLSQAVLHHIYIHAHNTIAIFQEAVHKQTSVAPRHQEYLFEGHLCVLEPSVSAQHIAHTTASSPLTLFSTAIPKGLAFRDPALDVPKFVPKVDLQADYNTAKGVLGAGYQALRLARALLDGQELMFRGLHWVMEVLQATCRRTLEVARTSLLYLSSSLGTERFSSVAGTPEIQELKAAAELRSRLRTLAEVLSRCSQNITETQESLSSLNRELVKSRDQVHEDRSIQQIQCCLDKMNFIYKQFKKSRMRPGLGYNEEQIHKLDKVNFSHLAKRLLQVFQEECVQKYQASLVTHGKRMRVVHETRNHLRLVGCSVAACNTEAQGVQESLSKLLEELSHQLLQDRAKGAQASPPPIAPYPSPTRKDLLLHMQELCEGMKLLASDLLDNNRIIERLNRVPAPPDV

[6] = target: cAMP-dependent protein kinase (PKA) (Homo sapiens) (UniProt P22694+P17612+P22612); test: Inhibition of PKA (unknown origin) at 1 uM incubated for 30 mins in presence of [gamma-33P]ATP by multidrop micro reagent based assay relative to control; values are per cent of control
[7] = target: T2, Protein kinase C zeta type (Homo sapiens) (UniProt Q05513); test: Inhibition of PKCzeta (unknown origin) at 1 uM incubated for 30 mins in presence of [gamma-33P]ATP by multidrop micro reagent based assay relative to control; values are per cent of control
T2 sequence (whole entry): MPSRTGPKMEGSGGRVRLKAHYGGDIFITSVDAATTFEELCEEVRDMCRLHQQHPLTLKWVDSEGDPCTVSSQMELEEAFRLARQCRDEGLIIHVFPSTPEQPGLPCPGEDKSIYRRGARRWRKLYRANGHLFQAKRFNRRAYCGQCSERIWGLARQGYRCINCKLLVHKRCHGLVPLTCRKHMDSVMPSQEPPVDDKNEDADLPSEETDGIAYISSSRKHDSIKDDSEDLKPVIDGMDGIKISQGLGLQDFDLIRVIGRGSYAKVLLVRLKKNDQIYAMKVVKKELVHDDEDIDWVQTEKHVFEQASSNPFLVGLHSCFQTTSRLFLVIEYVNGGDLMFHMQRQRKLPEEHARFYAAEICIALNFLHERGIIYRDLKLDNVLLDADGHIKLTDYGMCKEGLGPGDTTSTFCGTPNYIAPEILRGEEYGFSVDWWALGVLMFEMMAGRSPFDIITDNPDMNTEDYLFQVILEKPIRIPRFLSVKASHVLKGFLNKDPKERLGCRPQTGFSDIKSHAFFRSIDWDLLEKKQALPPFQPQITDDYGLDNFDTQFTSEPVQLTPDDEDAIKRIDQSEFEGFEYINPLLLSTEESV

[8] = target: Insulin-like growth factor 1 receptor (Homo sapiens) (UniProt P08069); test: Inhibition of IGF-1R (unknown origin) at 1 uM incubated for 30 mins in presence of [gamma-33P]ATP by multidrop micro reagent based assay relative to control; values are per cent of control
Chain of Insulin-like growth factor 1 receptor (Homo sapiens) (P08069 31-736 limits assumed): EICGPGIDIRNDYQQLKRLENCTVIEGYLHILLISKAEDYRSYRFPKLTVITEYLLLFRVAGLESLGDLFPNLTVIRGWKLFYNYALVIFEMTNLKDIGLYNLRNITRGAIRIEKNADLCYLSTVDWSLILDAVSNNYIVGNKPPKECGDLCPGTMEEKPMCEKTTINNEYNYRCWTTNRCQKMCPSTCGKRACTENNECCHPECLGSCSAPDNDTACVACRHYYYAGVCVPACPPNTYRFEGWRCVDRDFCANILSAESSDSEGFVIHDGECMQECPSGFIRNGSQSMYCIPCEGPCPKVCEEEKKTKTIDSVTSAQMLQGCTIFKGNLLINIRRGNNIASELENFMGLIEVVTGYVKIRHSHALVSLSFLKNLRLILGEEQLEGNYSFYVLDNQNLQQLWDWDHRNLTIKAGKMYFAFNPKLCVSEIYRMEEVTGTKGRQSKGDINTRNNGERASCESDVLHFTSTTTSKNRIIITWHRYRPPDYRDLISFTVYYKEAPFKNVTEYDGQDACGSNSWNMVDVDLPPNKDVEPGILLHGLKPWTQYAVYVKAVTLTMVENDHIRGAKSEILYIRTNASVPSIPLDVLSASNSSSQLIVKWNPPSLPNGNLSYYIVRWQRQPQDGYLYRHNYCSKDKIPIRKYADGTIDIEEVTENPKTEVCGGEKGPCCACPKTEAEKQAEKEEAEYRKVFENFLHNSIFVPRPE
Chain of Insulin-like growth factor 1 receptor (Homo sapiens) (P08069 741-1367 limits assumed): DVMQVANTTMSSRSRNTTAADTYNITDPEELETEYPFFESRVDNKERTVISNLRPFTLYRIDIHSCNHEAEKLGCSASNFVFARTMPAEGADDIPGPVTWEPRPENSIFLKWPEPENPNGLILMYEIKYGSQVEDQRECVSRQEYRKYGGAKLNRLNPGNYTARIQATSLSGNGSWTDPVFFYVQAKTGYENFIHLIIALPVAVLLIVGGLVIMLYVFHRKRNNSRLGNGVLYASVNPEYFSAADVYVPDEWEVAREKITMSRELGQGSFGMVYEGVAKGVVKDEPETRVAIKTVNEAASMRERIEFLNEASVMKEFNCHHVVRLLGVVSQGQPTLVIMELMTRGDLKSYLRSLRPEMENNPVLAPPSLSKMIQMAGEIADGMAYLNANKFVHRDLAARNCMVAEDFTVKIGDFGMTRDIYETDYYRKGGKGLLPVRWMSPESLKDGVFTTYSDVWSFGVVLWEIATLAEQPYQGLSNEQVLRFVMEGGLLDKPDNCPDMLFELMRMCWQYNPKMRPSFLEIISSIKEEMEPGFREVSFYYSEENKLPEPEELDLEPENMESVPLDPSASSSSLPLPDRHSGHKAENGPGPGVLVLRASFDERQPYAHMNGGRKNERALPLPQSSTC

[9] = target: Aurora kinase B (Homo sapiens) (UniProt Q96GD4); test: Inhibition of Aurora B kinase (unknown origin) at 1 uM incubated for 30 mins in presence of [gamma-33P]ATP by multidrop micro reagent based assay relative to control; values are per cent of control
Chain of Aurora kinase B (Homo sapiens) (Q96GD4 whole entry): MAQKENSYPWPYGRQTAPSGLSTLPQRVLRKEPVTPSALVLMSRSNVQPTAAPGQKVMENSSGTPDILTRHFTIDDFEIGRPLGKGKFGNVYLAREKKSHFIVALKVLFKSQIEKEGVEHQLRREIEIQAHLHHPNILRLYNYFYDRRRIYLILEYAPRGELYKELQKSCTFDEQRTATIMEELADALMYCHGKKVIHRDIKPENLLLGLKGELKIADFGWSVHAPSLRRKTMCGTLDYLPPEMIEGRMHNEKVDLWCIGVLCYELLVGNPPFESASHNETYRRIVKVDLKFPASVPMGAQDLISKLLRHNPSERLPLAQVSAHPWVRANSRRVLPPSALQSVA

[10] = target: Calcium/calmodulin-dependent protein kinase type 1 (Homo sapiens) (UniProt Q14012); test: Inhibition of CaMK1 (unknown origin) at 1 uM incubated for 30 mins in presence of [gamma-33P]ATP by multidrop micro reagent based assay relative to control; values are per cent of control
Chain of Calcium/calmodulin-dependent protein kinase type 1 (Homo sapiens) (Q14012 whole entry, looked up): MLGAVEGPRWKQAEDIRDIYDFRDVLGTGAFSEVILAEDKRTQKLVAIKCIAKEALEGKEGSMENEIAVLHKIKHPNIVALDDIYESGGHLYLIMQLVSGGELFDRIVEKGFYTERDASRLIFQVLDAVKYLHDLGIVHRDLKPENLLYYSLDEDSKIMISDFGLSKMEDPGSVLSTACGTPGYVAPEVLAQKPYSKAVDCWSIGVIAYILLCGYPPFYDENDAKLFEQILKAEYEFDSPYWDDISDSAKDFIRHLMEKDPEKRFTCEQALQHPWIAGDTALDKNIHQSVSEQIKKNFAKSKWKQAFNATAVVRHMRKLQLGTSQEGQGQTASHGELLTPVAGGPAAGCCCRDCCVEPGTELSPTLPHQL

Chain of RAC-alpha serine/threonine-protein kinase (Homo sapiens) (P31749 whole entry): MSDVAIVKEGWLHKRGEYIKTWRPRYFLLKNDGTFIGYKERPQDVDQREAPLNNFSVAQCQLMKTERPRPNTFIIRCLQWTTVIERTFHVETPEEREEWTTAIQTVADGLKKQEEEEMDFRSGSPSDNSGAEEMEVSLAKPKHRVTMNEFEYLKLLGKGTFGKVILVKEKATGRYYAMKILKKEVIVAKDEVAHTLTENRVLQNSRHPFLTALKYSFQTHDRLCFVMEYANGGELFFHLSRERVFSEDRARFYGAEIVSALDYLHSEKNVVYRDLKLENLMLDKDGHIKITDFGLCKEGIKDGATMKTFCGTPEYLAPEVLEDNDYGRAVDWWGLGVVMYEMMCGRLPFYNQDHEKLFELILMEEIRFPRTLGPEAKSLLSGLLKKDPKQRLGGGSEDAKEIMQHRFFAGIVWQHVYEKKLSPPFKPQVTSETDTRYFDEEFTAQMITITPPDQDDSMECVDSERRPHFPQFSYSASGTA

Structure (SMILES)	residual activity [1]	inhibition [2]	residual activity [3]	residual activity [4]	residual activity [5]	residual activity [6]	residual activity [7]	residual activity [8]	residual activity [9]	residual activity [10]
CC1=C(C(=O)Nc2cc3cn[nH]c3cc2F)C(c2ccc(C(F)(F)F)cc2)CC(=O)N1 (stereo not drawn)	72%	106%	93%	87%	109%	88%	81%	97%	59%	102%
Cc1cncc2cccc(S(=O)(=O)N3CCCNC[C@@H]3C)c12	64%	101%	72%	99%	80%	76%	86%	113%	11%	105%
CCN(CC)CCNC(=O)c1c(C)[nH]c(/C=C2\C(=O)Nc3ccc(F)cc32)c1C	73%	–	–	–	63%	–	–	–	29%	–
CCn1c(-c2nonc2N)nc2cnc(Oc3cccc(NC(=O)c4ccc(OCCN5CCOCC5)cc4)c3)cc21 [GSK-269962A]	26%	98%	12%	82%	66%	22%	5%	104%	36%	122%
